Literature values in the PKSmart pharmacokinetics tables (Seal et al. 2025).

What was measured:
[1] = Lombardo et al. 2013, J Clin Pharmacol 53:178, doi 10.1177/0091270012440282; conditions: for Vd / clearance: in vivo, iv; for fraction unbound: plasma
[2] = Lombardo, Berellini, Obach 2018, Drug Metab Dispos 46:1466, doi 10.1124/dmd.118.082966; conditions: human; for MRT / Vd / clearance / half-life: in vivo, iv; for fraction unbound: plasma

| SMILES | Vd ([1]; dog) | clearance ([1]; dog) | clearance ([1]; rat) | MRT [2] | Vd [2] | clearance [2] | half-life [2] | fraction unbound [2] | Vd ([1]; rat) | fraction unbound ([1]; rat) | fraction unbound ([1]; dog) | Vd ([1]; monkey) | clearance ([1]; monkey) | fraction unbound ([1]; monkey) |
| --- | --- | --- | --- | --- | --- | --- | --- | --- | --- | --- | --- | --- | --- | --- |
| NC(Cc1ccc(O)c(O)c1)C(=O)O (centres undefined) | 0.76 L/kg | 23.7 mL/min/kg | 109 mL/min/kg | 1.2 h | 1.7 L/kg | 23 mL/min/kg | 1.3 h | 0.76 |  |  |  |  |  |  |
| COc1cccc2c1C(=O)c1c(O)c3c(c(O)c1C2=O)C[C@@](O)(C(=O)CO)C[C@@H]3O[C@H]1C[C@H](N)[C@H](O)[C@H](C)O1 | 31.6 L/kg | 7.93 mL/min/kg | 32.4 mL/min/kg | 24 h | 22 L/kg | 15 mL/min/kg | 32 h |  | 5.5 L/kg |  |  |  |  |  |
| C[C@@H](CN1CC(=O)NC(=O)C1)N1CC(=O)NC(=O)C1 | 0.72 L/kg | 11.5 mL/min/kg |  | 3 h | 0.55 L/kg | 3.1 mL/min/kg | 2.5 h |  |  |  |  |  |  |  |
| CC(C)C[C@H](NC(=O)C(NC(=O)c1cccc(-c2ccccc2)n1)[C@@H](C)O)B(O)O (some centres undefined) |  |  | 3.17 mL/min/kg | 50.6 h | 0.87 L/kg | 0.29 mL/min/kg | 42.1 h |  | 18.1 L/kg |  |  |  |  |  |
| CC(C)(C)NC(=O)C1C[C@@H]2CCCC[C@@H]2CN1C[C@@H](O)[C@H](Cc1ccccc1)NC(=O)C(CC(N)=O)NC(=O)c1ccc2ccccc2n1 (some centres undefined) |  |  |  | 4.6 h | 3.6 L/kg |  | 13 h |  | 3 L/kg | 0.007 |  |  |  |  |
| Cc1ncc2n1-c1ccc(Cl)cc1C(c1ccccc1F)=NC2 | 1.1 L/kg | 35.2 mL/min/kg | 90 mL/min/kg | 3.5 h | 1.1 L/kg | 5.3 mL/min/kg | 3.1 h |  | 2.6 L/kg | 0.04 | 0.0223 | 3 L/kg | 22.3 mL/min/kg | 0.146 |
| COCCOC(=O)C1=C(C)NC(C)=C(C(=O)OC(C)C)C1c1cccc([N+](=O)[O-])c1 (centres undefined) | 3 L/kg | 18 mL/min/kg | 19.6 mL/min/kg | 1.2 h | 1.1 L/kg |  | 1.3 h |  | 5.5 L/kg | 0.03 | 0.03 | 3.62 L/kg | 33 mL/min/kg | 0.095 |
| CCN(CC)CCNC(=O)c1ccc(NC(C)=O)cc1 | 1.9 L/kg | 6.4 mL/min/kg | 28 mL/min/kg | 7.9 h | 1.9 L/kg | 4 mL/min/kg | 6.4 h | 0.9 | 2.9 L/kg | 0.58 | 0.913 |  |  |  |
| C[C@]12C=CC(=O)C=C1CC[C@@H]1C2C(=O)C[C@@]2(C)[C@H]1CC[C@]2(O)C(=O)CO (some centres undefined) | 2.3 L/kg | 24.9 mL/min/kg | 155 mL/min/kg | 3.8 h | 0.57 L/kg |  | 2.9 h |  | 1.3 L/kg | 0.41 | 0.5 | 1.7 L/kg | 9.8 mL/min/kg | 0.261 |
| Cc1nnc2n1-c1ccc(Cl)cc1C(c1ccccc1Cl)=NC2 |  |  |  | 3.2 h | 0.58 L/kg |  | 2.7 h |  | 3.4 L/kg |  |  |  |  |  |
| c1ccc(C2(N3CCCCC3)CCCCC2)cc1 | 16.6 L/kg | 54.1 mL/min/kg | 66.3 mL/min/kg | 23 h | 6.9 L/kg | 5.1 mL/min/kg | 16 h |  | 12.6 L/kg | 0.37 | 0.43 | 6.78 L/kg | 36.6 mL/min/kg | 0.314 |
| COc1cc2c(c(OC)c1OC)-c1ccc(OC)c(=O)cc1[C@@H](NC(C)=O)CC2 |  |  | 34.3 mL/min/kg | 49 h | 6.1 L/kg | 2.1 mL/min/kg | 58 h |  | 31.4 L/kg |  |  |  |  |  |
| CCC(CC)O[C@@H]1C=C(C(=O)O)C[C@H](N)[C@H]1NC(C)=O | 0.56 L/kg | 5.3 mL/min/kg | 25 mL/min/kg | 1.3 h | 0.37 L/kg | 4.8 mL/min/kg | 1.8 h |  | 1.3 L/kg |  | 0.304 |  |  |  |
| CC1COc2c(N3CCN(C)CC3)c(F)cc3c(=O)c(C(=O)O)cn1c23 (centres undefined) | 1.3 L/kg | 23.2 mL/min/kg | 13.2 mL/min/kg | 11 h | 1.6 L/kg | 2.5 mL/min/kg | 8.9 h |  | 1.42 L/kg |  | 0.51 |  |  | 0.71 |
| CC[C@@]1(O)CC(=O)OCc2c1cc1n(c2=O)Cc2cc3cc(F)c(F)cc3nc2-1 | 2.1 L/kg | 21.5 mL/min/kg | 23 mL/min/kg | 3.87 h | 1.42 L/kg | 8.42 mL/min/kg | 3.1 h | 0.126 | 2 L/kg |  |  |  |  |  |
| Nc1ncn([C@H]2C[C@H](O)[C@@H](CO)O2)c(=O)n1 | 0.85 L/kg | 8.6 mL/min/kg | 7.9 mL/min/kg | 0.59 h | 4.6 L/kg | 130 mL/min/kg | 0.58 h |  | 1.8 L/kg |  |  |  |  |  |
| CC(C)NCC(O)COc1ccc(CCOCC2CC2)cc1 (centres undefined) | 8.2 L/kg | 20 mL/min/kg | 154 mL/min/kg | 24 h | 4.8 L/kg | 3.4 mL/min/kg | 17 h |  | 12 L/kg | 0.54 | 0.47 |  |  |  |
| CN/C(=C\[N+](=O)[O-])NCCSCc1ccc(CN(C)C)o1 | 1.65 L/kg |  |  | 2.1 h | 1.2 L/kg |  | 2.1 h |  | 2.87 L/kg | 1 |  |  |  |  |
| CCC#CC[C@H](C)[C@H](O)C#C[C@@H]1[C@H]2C/C(=C/COCCCC(=O)O)C[C@H]2C[C@H]1O |  |  | 170 mL/min/kg |  |  |  |  |  | 1.5 L/kg |  |  | 1.6 L/kg | 63.1 mL/min/kg |  |
| COCCc1ccc(OCC(O)CNC(C)C)cc1 (centres undefined) |  |  | 87.2 mL/min/kg |  |  |  |  |  | 6.3 L/kg | 0.69 | 0.756 | 14 L/kg | 21.9 mL/min/kg | 0.825 |
| Cn1nnc2c(C(N)=O)ncn2c1=O |  |  | 9.8 mL/min/kg |  |  |  |  |  | 0.92 L/kg |  |  |  |  |  |
